Data: patent US20080318977A1, “Condensed Pyridines as Kinase Inhibitors” (Palau Pharma, S.A., priority 2004, published 2008)

Biological target: T1, p38α (Homo sapiens, UniProt Q16539)
T1 construct: GST-tagged fusion protein corresponding to full-length human p38α; purchased Upstate 14-251; host or cells: E. coli
Experiment: Inhibition of p38α enzyme activity (IMAP fluorescence polarisation kinase assay)
Type: biochemical
Conditions: at 1 μM compound; ATP 20 μM; 2 h at RT
Method: Inhibition of p38α Enzyme Activity:
Compound stocks in 100% DMSO are first diluted in DMSO to a concentration of 1×10^−3 up to 3.2×10^−8 M and then further diluted in kinase assay buffer (10 mM Tris-HCl, pH 7.2, 10 mM MgCl2, 0.01% tween 20, 0.05% NaN3, 1 mM dithiothreitol) to a concentration range of 4×10^−5 up to 1.3×10^−9 M. Of each compound solution 5 μL is transferred into a 384-wells black Optiplate (Packard, 6007279), followed by the addition of 5 μL of ATP (Boehringer, 519987), 5 μL of Fluorescein-labeled EGFR (Epidermal Growth Factor Receptor) peptide substrate and 5 μL of active p38 cc kinase (GST-tagged fusion protein corresponding to full-length human p38α; expressed in E. coli by Upstate, 14-251), all diluted in kinase assay buffer (see final concentrations in Table 1). The mixture is incubated for 2 h at room temperature (RT). The reaction is stopped by the addition of 60 μL of IMAP binding reagent, which has been diluted 400-fold in IMAP binding buffer (stock concentration 5 times diluted in Milli Q). After incubation for 30 min at RT, FP is measured on an Analyst™ multimode fluorescence plate reader (Molecular Devices) at excitation wavelength of 485 nm and emission wavelength of 530 nm (1 sec/well).
Data handling is performed as follows: percentage effects are calculated based on no-p38-enzyme-addition as the maximum inhibitory effect and with p38 enzyme addition as the minimum inhibitory effect. In each experiment, individual compound concentrations are tested in duplicate and percentage effect is calculated for each concentration.

T1 sequence (Q16539 whole entry, the tested form may be a part): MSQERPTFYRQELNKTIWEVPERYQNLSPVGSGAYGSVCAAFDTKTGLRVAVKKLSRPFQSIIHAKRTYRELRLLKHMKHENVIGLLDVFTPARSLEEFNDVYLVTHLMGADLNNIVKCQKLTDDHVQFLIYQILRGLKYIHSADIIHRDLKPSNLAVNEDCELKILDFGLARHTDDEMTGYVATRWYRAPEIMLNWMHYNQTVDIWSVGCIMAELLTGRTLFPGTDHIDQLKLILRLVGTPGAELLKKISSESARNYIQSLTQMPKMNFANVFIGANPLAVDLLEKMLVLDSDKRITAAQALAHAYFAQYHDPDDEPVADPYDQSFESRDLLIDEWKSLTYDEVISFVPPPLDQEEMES

SMILES	inhibition at 1 µM [%]
CCN(CC(=O)OC)Cc1cc2nc(-c3ccc(F)cc3)c(-c3ccncc3)c(-c3ccc(F)cc3)c2n1C [Example 35, {[5,7-Bis-(4-fluoro-phenyl)-1-methyl-6-pyridin-4-yl-1H-pyrrolo[3,2-b]pyridin-2-ylmethyl]-N-ethyl-amino}-acetic acid methyl ester]	> 50
Cn1ccc2nc(-c3ccc(F)cc3)c(-c3ccncc3)c(-c3ccc(F)cc3)c21 [Example 37, 5,7-Bis-(4-fluoro-phenyl)-1-methyl-6-pyridin-4-yl-1H-pyrrolo[3,2-b]pyridine]	> 50
COC(=O)c1n[nH]c2c(-c3ccc(F)cc3)c(-c3ccncc3)c(-c3ccc(F)cc3)nc12 [Example 39, 5,7-Bis-(4-fluoro-phenyl)-6-pyridin-4-yl-1H-pyrazolo[4,3-b]pyridine-3-carboxylic acid methyl ester]	> 50
Cc1noc2nc(-c3ccc(F)cc3)c(-c3ccnc(NCC4CC4)n3)cc12 [Example 40, Cyclopropylmethyl-{4-[6-(4-fluoro-phenyl)-3-methyl-isoxazolo[5,4-b]pyridin-5-yl]-pyrimidin-2-yl}-amine]	> 50
COCCCNc1nccc(-c2cc3c(C)noc3nc2-c2ccc(F)cc2)n1 [Example 41, {4-[6-(4-Fluoro-phenyl)-3-methyl-isoxazolo[5,4-b]pyridin-5-yl]-pyrimidin-2-yl}-(3-methoxy-propyl)-amine]	> 50
Cc1noc2nc(-c3ccc(F)cc3)c(-c3ccnc(N[C@@H](C)c4ccccc4)n3)cc12 [Example 42, (S)-{4-[6-(4-Fluoro-phenyl)-3-methyl-isoxazolo[5,4-b]pyridin-5-yl]-pyrimidin-2-yl}-(1-phenyl-ethyl)-amine]	> 50
Cc1nsc2nc(-c3ccc(F)cc3)c(-c3ccnc(NCC4CC4)n3)cc12 [Example 43, Cyclopropylmethyl-{4-[6-(4-fluoro-phenyl)-3-methyl-isothiazolo[5,4-b]pyridin-5-yl]-pyrimidin-2-yl}-amine]	> 50
COCCCNc1nccc(-c2cc3c(C)nsc3nc2-c2ccc(F)cc2)n1 [Example 44, {4-[6-(4-Fluoro-phenyl)-3-methyl-isothiazolo[5,4-b]pyridin-5-yl]-pyrimidin-2-yl}-(3-methoxy-propyl)-amine]	> 50
Cc1nsc2nc(-c3ccc(F)cc3)c(-c3ccnc(N[C@@H](C)c4ccccc4)n3)cc12 [Example 45, (S)-{4-[6-(4-Fluoro-phenyl)-3-methyl-isothiazolo[5,4-b]pyridin-5-yl]-pyrimidin-2-yl}-(1-phenyl-ethyl)-amine]	> 50
COc1ccc(-c2nc3cc[nH]c3cc2-c2ccnc(NCC3CC3)n2)cc1 [Example 46, Cyclopropylmethyl-{4-[5-(4-methoxy-phenyl)-1H-pyrrolo[3,2-b]pyridin-6-yl]-pyrimidin-2-yl}-amine]	> 50
COc1ccc(-c2nc3cc[nH]c3cc2-c2ccnc(N[C@@H](C)c3ccccc3)n2)cc1 [Example 47, (S)-{4-[5-(4-Methoxy-phenyl)-1H-pyrrolo[3,2-b]pyridin-6-yl]-pyrimidin-2-yl}-(1-phenyl-ethyl)-amine]	> 50
Cc1nc2cc(-c3ccnc(NCC4CC4)n3)c(-c3ccc(F)cc3)nc2s1 [Example 52, Cyclopropylmethyl-{4-[5-(4-fluoro-phenyl)-2-methyl-thiazolo[5,4-b]pyridin-6-yl]-pyrimidin-2-yl}-amine]	> 50
Fc1ccc(-c2nc3cn[nH]c3c(-c3ccc(F)cc3)c2-c2ccncc2)cc1 [Example 53, 5,7-Bis-(4-fluoro-phenyl)-6-pyridin-4-yl-1H-pyrazolo[4,3-b]pyridine]	> 50
O=C(NCCO)c1n[nH]c2c(-c3ccc(F)cc3)c(-c3ccncc3)c(-c3ccc(F)cc3)nc12 [Example 54, 5,7-Bis-(4-fluoro-phenyl)-6-pyridin-4-yl-1H-pyrazolo[4,3-b]pyridine-3-carboxylic acid (2-hydroxy-ethyl)-amide]	> 50
Cc1nc2cc(-c3ccnc(N[C@@H](C)c4ccccc4)n3)c(-c3ccc(F)cc3)nc2s1 [Example 56, (S)-{4-[5-(4-Fluoro-phenyl)-2-methyl-thiazolo[5,4-b]pyridin-6-yl]-pyrimidin-2-yl}-(1-phenyl-ethyl)-amine]	> 50
